{
  "source": "patent US20200390781A1",
  "about": "“CERTAIN (2S)-N-[(1S)-1-CYANO-2-PHENYLETHYL]-1,4-OXAZEPANE-2-CARBOXAMIDES FOR TREATING ANCA ASSOCIATED VASCULITIDES” (INSMED INCORPORATED, priority 2018, published 2020)",
  "format_in_all_cases": "cell-based, human",
  "key": {"cathepsin G (CatG)": {"test_system": "cathepsin G (CatG)", "assay": "CatG activity in lysates of neutrophils differentiated in the presence of INS1007", "conditions": "highest concentration tested (10 μM); data not shown", "experimental": "(§1) To evaluate the pharmacological effects of INS1007 on surface PR3 expression, total PR3 expression, and NSP activity, stem cells were differentiated to neutrophils in the presence of INS1007 at increasing concentrations. Primary bone marrow (BM) or umbilical cord blood (UC) derived CD34^+ neutrophil progenitor cells (AllCells; Alameda, Calif.) were cultured for 7 days in STEMSPAN™ SFEM media (Stemcell Technologies; Tukwila, Wash.) supplemented with recombinant human Stem Cell Factor (Peprotech; Rocky Hill, N.J.) and recombinant human IL-3 (Peprotech). […]\n(§2) Neutrophils in a separate aliquot of harvested neutrophils were lysed with 10% (v/v) Triton X-100 in PBS and the lysates were added to 96-well plates. Peptide substrates for NE (N-Methoxysuccinyl-Ala-Ala-Pro-Val-7-amido-4-methylcoumarin; Sigma-Aldrich; St. Louis, Mo.), for PR3 (aminobenzoyl-Val-Ala-Asp-Cys-Ala-Asp-Gln-Lys(2,4-dinitrophenyl); GenScript; Piscataway, N.J.), and for CatG (N-Succinyl-Ala-Ala-Pro-Phe p-nitroanilide; Sigma) were added, and either fluorescence or absorbance was quantified using a SYNERGY™ microplate reader (BioTek; Winooski, Vt.). […] A portion of cell lysate samples was retained for protein quantification using a PIERCE™ BCA Protein Assay Kit (Thermo Fisher) according to the manufacturer's instructions. […]"}, "neutrophil elastase (NE)": {"test_system": "neutrophil elastase (NE)", "assay": "NE activity in lysates of neutrophils differentiated in the presence of INS1007", "conditions": "highest concentration tested (10 μM); FIG. 5", "experimental": "as §1, §2"}, "total proteinase 3 (PR3)": {"test_system": "total proteinase 3 (PR3)", "assay": "Total PR3 expression (surface and intracellular) by flow cytometry in differentiated neutrophils", "conditions": "for total PR3 levels: FIG. 3", "experimental": "(§3) To evaluate the pharmacological effects of INS1007 on surface PR3 expression, total PR3 expression, and NSP activity, stem cells were differentiated to neutrophils in the presence of INS1007 at increasing concentrations. Primary bone marrow (BM) or umbilical cord blood (UC) derived CD34^+ neutrophil progenitor cells (AllCells; Alameda, Calif.) were cultured for 7 days in STEMSPAN™ SFEM media (Stemcell Technologies; Tukwila, Wash.) supplemented with recombinant human Stem Cell Factor (Peprotech; Rocky Hill, N.J.) and recombinant human IL-3 (Peprotech). The cells were differentiated in culture for another 7 days in STEMSPAN® SFEM media (Stemcell Technologies) with recombinant human Granulocyte Colony Stimulating Factor (Peprotech), plus increasing concentrations of INS1007 (0-10 μM). At the end of the differentiation/treatment period, cells were harvested for analysis.\n(§4) Differentiated neutrophils were harvested for flow cytometry to quantify PR3 expression on the surface of neutrophils (FIGS. 1 and 2) and neutrophil total PR3 expression (FIG. 3)."}, "[1]": {"test_system": "surface proteinase 3 (PR3)", "assay": "Surface PR3 expression by flow cytometry in neutrophils differentiated in the presence of INS1007", "conditions": "for percentage of cells with no detectable surface PR3 expression: untreated approximately 30-40%, FIG. 2", "experimental": "as §3, §4\nAfter harvest, the cells were resuspended in FACS staining buffer and Fc receptors were blocked for 30 min at 4° C. Cells were stained for 30 min with a mouse anti-PR3 monoclonal antibody (Abcam: Cambridge, Mass.) or a mouse monoclonal IgG isotype control (Abcam), followed by a Cy5-conjugated goat anti-mouse IgG secondary antibody (Abcam), and then analyzed using a GUAVA® EASYCYTEI^M 6HT flow cytometer (Millipore; Billerica, Mass.)."}, "surface PR3": {"test_system": "surface PR3", "assay": "Fluorescence microscopy of surface PR3 on differentiated neutrophils", "conditions": "differentiation in the presence of 10 μM INS1007; neutrophils derived from bone marrow or umbilical cord stem cells (both cell types)", "experimental": "as §3, with “At the end of the differentiation/treatment period, cells were harvested for analysis.” left out\nIn a separate experiment, neutrophils were harvested, stained for 30 min. with either a mouse anti-PR3 monoclonal antibody (Abcam; Cambridge, Mass.) or a mouse monoclonal IgG isotype control (Abcam), followed by a Cy5-conjugated goat anti-mouse IgG secondary antibody (Abcam), fixed in 4% formaldehyde, and mounted to glass slides with PROLONG® Diamond Antifade Mountant with DAPI (Thermo Fisher; Waltham, Mass.). Samples were imaged with an Axio fluorescence microscope (Zeiss; Oberkochen, Germany) using constant settings while imaging samples from different treatment conditions."}, "proteinase 3 (PR3)": {"test_system": "proteinase 3 (PR3)", "assay": "PR3 activity in lysates of neutrophils differentiated in the presence of INS1007", "conditions": "highest concentration tested (10 μM); FIG. 6", "experimental": "as §1, §2"}},
  "data": [
    {"smiles": "Cn1c(=O)oc2ccc(-c3ccc(C[C@@H](C#N)NC(=O)[C@@H]4CNCCCO4)cc3)cc21", "note": "[INS1007, (2S)—N-{(1S)-1-cyano-2-[4-(3-methyl-2-oxo-2,3-dihydro-1,3-benzoxazol-5-yl)phenyl]ethyl}-1,4-oxazepane-2-carboxamide]", "values": [
      {"measurement": "decrease of CatG activity", "setting": "cathepsin G (CatG)", "value": "greater than 75%"},
      {"measurement": "decrease of NE activity", "setting": "neutrophil elastase (NE)", "value": "> 90", "unit": "%"},
      {"measurement": "total PR3 levels", "setting": "total proteinase 3 (PR3); bone marrow stem cell-derived neutrophils, not completely concentration-dependent", "value": "significantly reduced"},
      {"measurement": "percentage of cells with positive total PR3 expression", "setting": "total proteinase 3 (PR3); neutrophils derived from either umbilical cord blood or bone marrow stem cells, FIG. 4", "value": "did not reduce"},
      {"measurement": "total PR3 levels", "setting": "total proteinase 3 (PR3); umbilical cord blood stem cell-derived neutrophils", "value": "did not reach statistically significant reduction"},
      {"measurement": "percentage of cells with no detectable surface PR3 expression", "setting": "[1]; neutrophils derived from bone marrow stem cells", "value": "~80", "unit": "%"},
      {"measurement": "maximum reduction of surface PR3 expression (MFI, percent of untreated cells)", "setting": "[1]; neutrophils derived from both bone marrow and umbilical cord blood stem cells, INS1007 0-10 μM, FIG. 1", "value": "greater than 60%"},
      {"measurement": "percentage of cells with no detectable surface PR3 expression", "setting": "[1]; neutrophils derived from umbilical cord blood stem cells", "value": "more than 50%"},
      {"measurement": "surface PR3 (fluorescence microscopy)", "setting": "surface PR3", "value": "markedly reduced"},
      {"measurement": "decrease of PR3 activity", "setting": "proteinase 3 (PR3)", "value": "> 90", "unit": "%"}
    ]}
  ]
}
